Where two headings read alike, the source gives them in different places.
What was measured:
Concanavalin A (ConA) [1] = biological target: T1, Concanavalin A (ConA) (Canavalia ensiformis, UniProt P02866); settings: PBS, 25 °C, four ConA concentrations 118 to […], no aff. = no affinity of the conjugate to the lectin could be determined
Protocol: SAW measurements were performed with apparatus from SAW Instruments GmbH, which included an autosampler and allowed for measuring of protein adsorption and KD value determination. Measurements were performed at 25 °C using PBS as a running buffer. For the immobilization of polymers containing a thioether group on the bare gold sensor chip surface 30 µL of polymers per lane (concentration: 10 µg·mL^−1 in PBS) were preincubated onto the sensor chip for 1 h with an external application mask. Remaining unspecific protein binding sites on the bare gold surface were saturated by the injection of 500 µM BSA. Purified recombinant ConA was used as an analyte at four concentrations, ranging from 118 to 944 nM. The flow rate for the acquisition of interaction data was set to 40 µL·min^−1 in all experiments. Association was measured for 300 s, then dissociation was initiated by perfusing the running buffer, and the dissociation phase was also monitored for 300 s. Regeneration of the chip surface was performed by injection of two 60 s pulses of 100 mM glycine (pH 2.5) at a flow rate of 100 µL·min^−1. Interaction data were analyzed using the FitMaster add-in (SAW Instruments GmbH) of Origin software version 8.5 (OriginLab Corporation), applying a simple Langmuir-type 1:1 interaction model. Association rate constant kon values and dissociation rates constant koff values were obtained by fitting data of individual experiments. Equilibrium binding KD values were deduced using the equation KD = koff/kon. […]
Following the preparation of the gold surface with the polymer conjugates and saturation with BSA, the main measurement can be performed by analyzing the binding affinity of the lectin to the functionalized surface. For this, a constant flow of a series of ConA dilutions with defined concentrations of ConA is injected on each channel and the phase change of surface acoustic waves, which are influenced by binding events, is monitored. […] After measuring four different ConA concentrations, the binding and dissociation curves are fitted and the KD value is calculated.

Concanavalin A (ConA) [2] = biological target: T1, Concanavalin A (ConA); settings: HBS150T pH 7.4, 25 °C, ConA 118 to […], no aff. = no affinity could be determined
Protocol: Interactions between polymers and Concanavalin A (ConA) were measured by SPR using a […] ®4SPR system (Reichert Technologies). Measurements were performed at 25 °C using HBS150T (10 mM HEPES (pH 7.4), 150 mM NaCl, 3.4 mM EDTA, 0.005% (v/v) Tween 20) as running buffer. For the immobilization of polymers containing a thioether group on the bare gold sensor chip surface, the polymers were injected onto a sensor for 8 min at a flow rate of 10 µL/min to cause polymer coating to a final density of 1000 resonance units. Remaining unspecific protein binding sites on the bare gold surface were saturated by the injection of 500 µM BSA. Purified recombinant ConA was used as an analyte at four concentrations, ranging from 118 to 944 nM. The flowrate for the acquisition of interaction data was set to 25 µL·min^−1 in all experiments. Association was measured for 180 s, then dissociation was initiated by perfusing running buffer, and the dissociation phase was monitored for 300 s. Regeneration of the chip surface was performed by injecting two 60 s pulses of 100 mM glycine (pH 2.5) at a flow rate of 100 µL·min^−1. Interaction data were analyzed using the software TraceDrawer version 1.8.1 (Ridgeview Instruments AB, Uppsala, Sweden), applying a simple Langmuir-type 1:1 interaction model and using global fitting for the rate constants. Association rate constant kon values and dissociation rates constant koff values were obtained by fitting the data of individual experiments. Equilibrium binding KD values were deduced using the equation KD = koff/kon. All SPR experiments were performed in at least three independent experiments.
Preparing the samples is identical to SAW measurements. The SPR measuring channels were coated with polymer solution, and unoccupied gold surface was saturated with BSA.

CGGWYKYW-PMeOx20-SEt
no aff.: SAW KD (Concanavalin A (ConA) [1]; Lane 1) | SAW KD (Concanavalin A (ConA) [1]; Lane 2) | SAW KD (Concanavalin A (ConA) [1]; Lane 3) | SPR KD (Concanavalin A (ConA) [2]; Lane 1 (for III: repeat (1))) | SPR KD (Concanavalin A (ConA) [2]; Lane 2 (for III: repeat (1))) | SPR KD (Concanavalin A (ConA) [2]; Lane 3 (for III: repeat (1))) | SPR KD (Concanavalin A (ConA) [2]; Lane 4 (for III: repeat (1)))
